Source: US20250179103A1, “6-OXODECAHYDROPYRROLO[1,2-A][1,5]DIAZOCINE AND 6-OXODECAHYDRO-4H-PYRROLO[2,1-D][1,5]THIAZOCINE DERIVATIVES AS STAT3 AND STAT6 MODULATORS FOR THE TREATMENT OF CANCER AND INFLAMMATORY CONDITIONS” (Recludix Pharma, Inc., priority 2022, published 2025)

Experiments:
[1] = target: T1, Recombinant STAT3 protein (STAT3(G127-I722)) (Homo sapiens, UniProt P40763); test: STAT3 Fluorescence Polarization (FP) Assay; format: binding; conditions: STAT3(G127-I722) 25 nM, probe 5-FAM-GpYLPQTV-NH2 2 nM, 45-minute incubation
T1 construct: Recombinant STAT3 protein (STAT3(G127-I722))
Summary of the method: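 Fluorescence polarization after a 45-min room-temperature incubation measured compound displacement of a 2 nM fluorescein-labelled phosphotyrosine peptide (5-FAM-GpYLPQTV-NH2) from 25 nM recombinant STAT3(G127-I722). Buffer was 10 mM HEPES pH 7.4 with 1% DMSO final. IC50s were fitted by nonlinear regression of mP against log concentration.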

[2] = target: T2, Recombinant STAT6 protein (STAT6(W123-T658)) (Homo sapiens, UniProt P42226); test: STAT6 Fluorescence Polarization (FP) Assay; format: binding; conditions: STAT6(W123-T658) 250 nM, probe 5-FAM-ApYKPFQDLI-NH2 2 nM, 45-minute incubation
T2 construct: Recombinant STAT6 protein (STAT6(W123-T658))
T2 sequence (P42226 123-658): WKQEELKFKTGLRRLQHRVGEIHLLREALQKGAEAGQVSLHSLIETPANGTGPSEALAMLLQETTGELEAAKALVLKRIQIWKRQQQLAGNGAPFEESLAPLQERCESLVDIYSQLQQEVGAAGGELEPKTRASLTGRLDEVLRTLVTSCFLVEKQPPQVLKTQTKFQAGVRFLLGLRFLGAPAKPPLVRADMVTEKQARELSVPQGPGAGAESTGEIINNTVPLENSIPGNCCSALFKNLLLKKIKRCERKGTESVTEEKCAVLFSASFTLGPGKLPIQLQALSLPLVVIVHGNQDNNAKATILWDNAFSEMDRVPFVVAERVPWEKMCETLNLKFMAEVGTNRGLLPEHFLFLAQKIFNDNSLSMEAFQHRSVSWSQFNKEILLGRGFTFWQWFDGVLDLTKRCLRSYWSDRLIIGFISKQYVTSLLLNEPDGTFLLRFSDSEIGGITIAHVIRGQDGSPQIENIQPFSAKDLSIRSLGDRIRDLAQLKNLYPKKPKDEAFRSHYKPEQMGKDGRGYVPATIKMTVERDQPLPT
Summary of the method: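 Displacement of a fluorescent phosphotyrosine peptide (5-FAM-ApYKPFQDLI-NH2, 2 nM) from STAT6(W123-T658) (250 nM), 1% DMSO, pH 7.4 HEPES buffer. After 45 min at room temperature, polarization (mP) was plotted versus log compound concentration and fitted by nonlinear regression to give IC50.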

T1 sequence (P40763 127-722): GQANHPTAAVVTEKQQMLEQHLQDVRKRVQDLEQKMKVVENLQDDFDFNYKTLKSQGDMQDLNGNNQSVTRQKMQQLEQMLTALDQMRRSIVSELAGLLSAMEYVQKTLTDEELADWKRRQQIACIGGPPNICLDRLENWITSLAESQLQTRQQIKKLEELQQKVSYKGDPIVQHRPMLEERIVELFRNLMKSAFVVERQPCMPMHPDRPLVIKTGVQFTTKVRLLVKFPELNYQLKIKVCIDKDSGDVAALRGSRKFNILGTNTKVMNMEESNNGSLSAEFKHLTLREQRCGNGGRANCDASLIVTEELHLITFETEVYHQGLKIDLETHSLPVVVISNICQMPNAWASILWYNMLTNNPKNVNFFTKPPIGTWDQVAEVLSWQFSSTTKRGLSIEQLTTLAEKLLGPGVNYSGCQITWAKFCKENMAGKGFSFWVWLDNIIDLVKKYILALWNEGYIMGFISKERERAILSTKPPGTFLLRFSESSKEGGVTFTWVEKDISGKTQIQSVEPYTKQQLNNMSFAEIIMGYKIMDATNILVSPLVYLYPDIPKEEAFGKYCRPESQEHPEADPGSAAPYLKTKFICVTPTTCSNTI

IC50 [1]	IC50 [2]	Structure (SMILES)
1 to 10 µM	0.3 to 3 µM	CC(=O)N1CC[C@H]2CC[C@@H](C(=O)N(C)c3ccc(Cl)c(Cl)c3)N2C(=O)[C@@H](NC(=O)c2cc3cc(C(F)(F)P(=O)(O)O)ccc3s2)C1 [Compound 188, ((2-(((5S,8S,10aR)-3-acetyl-8-((3,4-dichlorophenyl)(methyl)carbamoyl)-6-oxodecahydropyrrolo[1,2-a][1,5]diazocin-5-yl)carbamoyl)benzo[b]thiophen-5-yl)difluoromethyl)phosphonic acid]
1 to 10 µM	≤ 0.3 µM	Cc1ccc2[nH]nc(C(=O)N3CC[C@H]4CC[C@@H](C(=O)N(C)C)N4C(=O)[C@@H](NC(=O)c4cc5cc(C(F)(F)P(=O)(O)O)ccc5s4)C3)c2c1 [Compound 231, ((2-(((5S,8S,10aR)-8-(dimethylcarbamoyl)-3-(5-methyl-1H-indazole-3-carbonyl)-6-oxodecahydropyrrolo[1,2-a][1,5]diazocin-5-yl)carbamoyl)benzo[b]thiophen-5-yl)difluoromethyl)phosphonic acid]
0.1 to 1 µM	3 to 30 µM	CC(=O)N1CC[C@H]2CC[C@@H](C(=O)Nc3c(C)cc(-c4ccccc4)cc3C)N2C(=O)[C@@H](NC(=O)c2cc3cc(C(F)(F)P(=O)(O)O)ccc3s2)C1 [Compound 44, ((2-(((5S,8S,10aR)-3-acetyl-8-((3,5-dimethyl-[1,1′-biphenyl]-4-yl)carbamoyl)-6-oxodecahydropyrrolo[1,2-a][1,5]diazocin-5-yl)carbamoyl)benzo[b]thiophen-5-yl)difluoromethyl)phosphonic acid]
1 to 10 µM	0.3 to 3 µM	CC(=O)N1CC[C@H]2CC[C@@H](C(=O)N(C)c3ccc(OCCN(C)C)cc3)N2C(=O)[C@@H](NC(=O)c2cc3cc(C(F)(F)P(=O)(O)O)ccc3s2)C1 [Compound 125, ((2-(((5S,8S,10aR)-3-acetyl-8-((4-(2-(dimethylamino)ethoxy)phenyl)(methyl)carbamoyl)-6-oxodecahydropyrrolo[1,2-a][1,5]diazocin-5-yl)carbamoyl)benzo[b]thiophen-5-yl)difluoromethyl)phosphonic acid]
1 to 10 µM	0.3 to 3 µM	CC(=O)N1CC[C@H]2CC[C@@H](C(=O)N3CCN(C4CC4)C(C#N)C3)N2C(=O)[C@@H](NC(=O)c2cc3cc(C(F)(F)P(=O)(O)O)ccc3s2)C1 (stereo partly drawn) [Compound 63, ((2-(((5S,8S,10aR)-3-acetyl-8-(3-cyano-4-cyclopropylpiperazine-1-carbonyl)-6-oxodecahydropyrrolo[1,2-a][1,5]diazocin-5-yl)carbamoyl)benzo[b]thiophen-5-yl)difluoromethyl)phosphonic acid]
1 to 10 µM	3 to 30 µM	CC(=O)N1CC[C@H]2CC[C@@H](C(=O)Nc3ccc(-n4ccccc4=O)cc3)N2C(=O)[C@@H](NC(=O)c2cc3cc(C(F)(F)P(=O)(O)O)ccc3[nH]2)C1 [Compound 103, ((2-(((5S,8S,10aR)-3-acetyl-6-oxo-8-((4-(2-oxopyridin-1(2H)-yl)phenyl)carbamoyl)decahydropyrrolo[1,2-a][1,5]diazocin-5-yl)carbamoyl)-1H-indol-5-yl)difluoromethyl)phosphonic acid]
≤ 0.1 µM	3 to 30 µM	CNC(=O)[C@@H]1CC[C@@H]2CCN(Cc3ccn4ccnc4c3)C[C@H](NC(=O)c3cc4cc(C(F)(F)P(=O)(O)O)ccc4s3)C(=O)N21 [Compound 272, (difluoro(2-(((5S,8S,10aR)-3-(imidazo[1,2-a]pyridin-7-ylmethyl)-8-(methylcarbamoyl)-6-oxodecahydropyrrolo[1,2-a][1,5]diazocin-5-yl)carbamoyl)benzo[b]thiophen-5-yl)methyl)phosphonic acid]
1 to 10 µM	≤ 0.3 µM	CC(=O)N1CC[C@H]2CC[C@@H](C(=O)N3C[C@H](c4ccccc4)[C@@H](C#N)C3)N2C(=O)[C@@H](NC(=O)c2cc3cc(C(F)(F)P(=O)(O)O)ccc3[nH]2)C1 (single isomer, unassigned) [Compound 138, ((2-(((5S,8S,10aR)-3-acetyl-8-((3R,4S or 3S,4R)-3-cyano-4-phenylpyrrolidine-1-carbonyl)-6-oxodecahydropyrrolo[1,2-a][1,5]diazocin-5-yl)carbamoyl)-1H-indol-5-yl)difluoromethyl)phosphonic acid]
1 to 10 µM	0.3 to 3 µM	CC(=O)N1CC[C@H]2CC[C@@H](C(=O)N(C)c3ccc(C(C)(C)c4ccccc4)cc3)N2C(=O)[C@@H](NC(=O)c2cc3cc(C(F)(F)P(=O)(O)O)ccc3s2)C1 [Compound 155, ((2-(((5S,8S,10aR)-3-acetyl-8-(methyl(4-(2-phenylpropan-2-yl)phenyl)carbamoyl)-6-oxodecahydropyrrolo[1,2-a][1,5]diazocin-5-yl)carbamoyl)benzo[b]thiophen-5-yl)difluoromethyl)phosphonic acid]
> 10 µM	> 30 µM	CC(=O)N1CC[C@H]2CC[C@@H](C(=O)N(C)c3ccccc3)N2C(=O)[C@@H](NC(=O)c2cc3cc(C(C#N)P(=O)(O)O)ccc3s2)C1 (stereo partly drawn) [Compound 16, ((2-(((5S,8S,10aR)-3-acetyl-8-(methyl(phenyl)carbamoyl)-6-oxodecahydropyrrolo[1,2-a][1,5]diazocin-5-yl)carbamoyl)benzo[b]thiophen-5-yl)(cyano)methyl)phosphonic acid]
> 10 µM	≤ 0.3 µM	CC(=O)N1CC[C@H]2CC[C@@H](C(=O)N3CC(c4cc[nH]c(=O)c4)CC34CC4)N2C(=O)[C@@H](NC(=O)c2ccc3ccc(C(F)(F)P(=O)(O)O)cc3c2)C1 (stereo partly drawn) [Compound 37, ((7-(((5S,8S,10aR)-3-acetyl-6-oxo-8-(6-(2-oxo-1,2-dihydropyridin-4-yl)-4-azaspiro[2.4]heptane-4-carbonyl)decahydropyrrolo[1,2-a][1,5]diazocin-5-yl)carbamoyl)naphthalen-2-yl)difluoromethyl)phosphonic acid]
1 to 10 µM	0.3 to 3 µM	CC(=O)N1CC[C@H]2CC[C@@H](C(=O)N3CCC(N(Cc4noc(C5CC5)n4)C(C)=O)C3)N2C(=O)[C@@H](NC(=O)c2cc3cc(C(F)(F)P(=O)(O)O)ccc3s2)C1 (stereo partly drawn) [Compound 85, ((2-(((5S,8S,10aR)-3-acetyl-8-(3-(N-((5-cyclopropyl-1,2,4-oxadiazol-3-yl)methyl)acetamido)pyrrolidine-1-carbonyl)-6-oxodecahydropyrrolo[1,2-a][1,5]diazocin-5-yl)carbamoyl)benzo[b]thiophen-5-yl)difluoromethyl)phosphonic acid]
1 to 10 µM	3 to 30 µM	CC(=O)N1CC[C@H]2CC[C@@H](C(=O)N(C)c3ccc4oncc4c3)N2C(=O)[C@@H](NC(=O)c2cc3cc(C(F)(F)P(=O)(O)O)ccc3s2)C1 [Compound 49, ((2-(((5S,8S,10aR)-3-acetyl-8-(benzo[d]isoxazol-5-yl(methyl)carbamoyl)-6-oxodecahydropyrrolo[1,2-a][1,5]diazocin-5-yl)carbamoyl)benzo[b]thiophen-5-yl)difluoromethyl)phosphonic acid]
1 to 10 µM	≤ 0.3 µM	COc1cccc([C@@H]2CN(C(=O)[C@@H]3CC[C@@H]4CCN(C(C)=O)C[C@H](NC(=O)c5cc6cc(C(F)(F)P(=O)(O)O)ccc6s5)C(=O)N43)C[C@H]2C#N)c1 (relative stereo) [Compound 149, ((2-(((5S,8S,10aR)-3-acetyl-8-((rel-trans)-3-cyano-4-(3-methoxyphenyl)pyrrolidine-1-carbonyl)-6-oxodecahydropyrrolo[1,2-a][1,5]diazocin-5-yl)carbamoyl)benzo[b]thiophen-5-yl)difluoromethyl)phosphonic acid]
0.1 to 1 µM	≤ 0.3 µM	O=C(N[C@H]1CN(CC(F)F)CC[C@H]2CC[C@@H](C(=O)N3C[C@H](c4ccccc4)[C@@H](C(F)F)C3)N2C1=O)c1cc2cc(C(F)(F)P(=O)(O)O)ccc2s1 (relative stereo) [Compound 242, ((2-(((5S,8S,10aR)-3-(2,2-difluoroethyl)-8-((rel-trans)-3-(difluoromethyl)-4-phenylpyrrolidine-1-carbonyl)-6-oxodecahydropyrrolo[1,2-a][1,5]diazocin-5-yl)carbamoyl)benzo[b]thiophen-5-yl)difluoromethyl)phosphonic acid]
1 to 10 µM	0.3 to 3 µM	CC(=O)N1CC[C@H]2CC[C@@H](C(=O)N(C)c3ccc(N4CCOCC4)cc3)N2C(=O)[C@@H](NC(=O)c2cc3cc(C(F)(F)P(=O)(O)O)ccc3s2)C1 [Compound 190, ((2-(((5S,8S,10aR)-3-acetyl-8-(methyl(4-morpholinophenyl)carbamoyl)-6-oxodecahydropyrrolo[1,2-a][1,5]diazocin-5-yl)carbamoyl)benzo[b]thiophen-5-yl)difluoromethyl)phosphonic acid]
